The results in this text go back to article PMC5908295 (Oncotarget, 2018).

The term Kd denotes the concentration at which binding is half-saturated. A low value points to a tighter complex. The GI50 is the concentration giving 50% growth inhibition. Low values mean more potent growth inhibition, high ones less potent growth inhibition.

For one experiment, the system named is MOLM-16 (FLT3-WT) cells. The experiment in a line: Western blot of FLT3/PIM downstream signaling. Type of experiment: cell-based. As to conditions: MOLM-16, 4 hours. As for the experimental part: (§1) Thereafter, we assessed the activities of FLT3-ITD – induced key pro-survival signaling pathways; STAT5, RAF/MEK/ERK and PI3K/AKT (Figure 3). […] Since the expression of a major anti-apoptotic BCL2 family member, MCL1, is regulated by translation, and PIM kinases regulate protein synthesis through 4EBP1, we also assessed the abundance of MCL1.
(§2) Cells were collected, washed twice with cold PBS, and lysed in RIPA buffer and kept on ice for 10 min. Tumor specimens from xenograft studies were homogenized in RIPA buffer using OMNI TH Tissue Homogenizer and kept on ice for 30 min. After incubation, cell and tumor lysates were centrifuged at 13,000×g at 4°C for 10 min and the supernatants were stored at −80°C until use. Protein concentration was measured using the Bradford method. For SDS-PAGE, 50 μg of protein in the Laemmli sample buffer was loaded onto 10% polyacrylamide gels and electrophoresed. Thereafter, proteins were transferred onto polyvinylidene fluoride (PVDF) membranes (Millipore). After blocking with 5% non-fat dry milk/TBS-T or 2% BSA/TBS-T, membranes were incubated with specific primary antibodies (listed in Supplementary Table 2) at 4 °C overnight. After extensive washing in PBS-T, membranes were incubated for 60 min with appropriate secondary peroxidase-conjugated IgG. The immunoreactive proteins were detected using an enhanced chemiluminescence (ECL) substrate (GE Healthcare) and visualized with Hyperfilm-ECL (GE Healthcare Biosciences).
Background: In western blotting, separated proteins are transferred to a membrane and probed.

Experiment [1] relates to MV-4-11 (FLT3-ITD+) cells. The experiment in a line: Western blot of FLT3/PIM downstream signaling. In kind it is cell-based. As to conditions: MV-4-11, 4 hours. On the procedure:
as §1, §2

Experiment [2] relates to MV-4-11 tumors (FLT3-ITD+). Put plainly: MV-4-11 subcutaneous xenograft, single agent. As to conditions: PO. Type of experiment: in vivo, SCID/beige mice. From the text:
All animals were handled in strict accordance with good animal practice as defined by the relevant national and local animal welfare bodies. SCID and SCID/beige C.B-17 mice were provided by Harlan Laboratories or Charles River Laboratories, and were maintained in pathogen free conditions. For the xenograft experiments, age-matched (9-11 weeks old) females were used. 5×10^6 of MV-4-11 or MOLM-16 cells were suspended in a mixture (1:1, v:v) of PBS with Matrigel (BD Biosciences,) and injected subcutaneously (sc), in a total volume of 100 μL, above the groin on the right hind limb. For MOLM-13 and KG-1 cells, a mixture (3:1, v:v) of PBS and Matrigel HC (BD Bioscience,) was used to inject 5 × 10^6 of cell per mouse subcutaneously (sc), in a total volume of 100 μL. When tumors reached 100-130 mm^3, mice were randomized into uniform groups (6-9 mice per group) and subsequently administered the compound. […] At the end of the experiment, mice were anesthetized with isofluran and blood samples for total cell counts and biochemistry were obtained by retro-orbital bleeding. […] 5×10^6 cells suspended in a mixture (3:1, v:v) of PBS and Matrigel were injected as described above. When the tumor volume reached ~120 mm^3, mice were randomized into uniform groups (5 mice per group) and the compound then administered. […] Tumor volume was monitored every second day and calculated using the formula: TV = (a^2×b)/2, where “a” is the short axis in millimeters, and “b” is the long axis in millimeters. Body weight was assessed every day.

In another experiment the target is FLT3 (D835V) (Homo sapiens, UniProt P36888, D835V). The experiment in a line: KINOMEscan Kd, specific screen against FLT3 mutants. Type of experiment: binding. On the procedure: (§3) Dissociation constants (Kd) and inhibition levels of FLT3 mutants were measured at DiscoverX using the KINOMEscan^TM Profiling Service (KdELECT).
A further experiment deals with FLT3 (ITD) (Homo sapiens, UniProt P36888, ITD). The experiment is described as above. In kind it is binding. As for the experimental part: as §3
Another experiment concerns the target FLT3 (N841I) (Homo sapiens, UniProt P36888, N841I). The description is as above. In kind it is binding. As for the experimental part:
as §3

For the next experiment, the target named is FLT3 (R834Q) (Homo sapiens, UniProt P36888, R834Q). The description is as above. In kind it is binding. On the procedure:
as §3

The next experiment deals with FLT3 (D835Y) (Homo sapiens, UniProt P36888, D835Y). Described as above. In kind it is binding. On the procedure:
as §3

Another experiment concerns the target FLT3 (D835H) (Homo sapiens, UniProt P36888, D835H). Described as above. In kind it is binding. On the procedure: as §3
A further experiment concerns the target FLT3 (ITD, F691L) (Homo sapiens, UniProt P36888, F691L/ITD). Described as above. In kind it is binding. As for the experimental part:
as §3

The target of a further experiment is FLT3 (K663Q) (Homo sapiens, UniProt P36888, K663Q). Described as above. In kind it is binding. As for the experimental part: as §3
Another experiment has as its target FLT3 (ITD, D835V) (Homo sapiens, UniProt P36888, D835V/ITD). Described as above. Type of experiment: binding. On the procedure:
as §3

The next experiment deals with PIM2 (Homo sapiens, UniProt Q9P1W9). The experiment in a line: KINOMEscan Kd (DiscoverX). Type of experiment: binding.
For the next experiment, the system named is SKM-1. Put plainly: MTS viability assay, 72 h. As to conditions: Homo sapiens, SKM-1, 72 h. For orientation: Tetrazolium dyes change colour on reduction, which living cells bring about.
In experiment [3] the test system is S6 phosphorylation (Ser235/236) in KG-1 cells. Put plainly: S6 phosphorylation, Western blot. Type of experiment: cell-based. As to conditions: Homo sapiens; KG-1, 4 hours; read-out: IC50 S6 phosphorylation (Ser235/236), Western blotting. As for the experimental part:
as §2

The test system of another experiment is OCI-AML-3. Put plainly: MTS viability assay, 72 h. Particulars: Homo sapiens, OCI-AML-3, 72 h.

PIM2, sequence (Q9P1W9 whole entry): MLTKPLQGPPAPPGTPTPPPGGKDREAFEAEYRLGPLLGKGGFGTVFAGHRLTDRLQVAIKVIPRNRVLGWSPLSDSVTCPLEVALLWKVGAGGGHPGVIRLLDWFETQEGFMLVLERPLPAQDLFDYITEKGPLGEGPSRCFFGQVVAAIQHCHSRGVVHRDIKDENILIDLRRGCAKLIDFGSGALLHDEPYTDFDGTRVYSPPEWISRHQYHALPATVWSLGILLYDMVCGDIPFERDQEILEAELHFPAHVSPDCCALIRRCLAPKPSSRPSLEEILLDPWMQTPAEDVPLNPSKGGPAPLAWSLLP
Description for OCI-AML-3: 15-25 ×10^3 of MV-4-11, MOLM-13, MOLM-14, MOLM-16, KG-1, Eol-1, SKM-1, PL-21, GDM-1, SKNO-1, RS4;11, Kasumi-3 and Kasumi-6 cells were seeded in 150 μL of culture medium onto individual wells in a 96 well plates, in triplicates. On the same day, 50 μL of medium containing tested inhibitor was added to the wells. Each compound was tested at 8 concentrations, in triplicates. As a negative control, the medium containing 0.1% DMSO was used. […] Staurosporine was used at 10 μM as a positive control. One the day of drug addition, basal signal from untreated cells was measured from in triplicate to determine time zero (T0). […] GI50 and LC50 values were extrapolated from a variable (four-parameter) dose-response curve fitted in GraphPad Prism.
Description for SKM-1: On the same day, 50 μL of medium containing tested inhibitor was added to the wells. Each compound was tested at 8 concentrations, in triplicates. As a negative control, the medium containing 0.1% DMSO was used. […] Staurosporine was used at 10 μM as a positive control. One the day of drug addition, basal signal from untreated cells was measured from in triplicate to determine time zero (T0). […] GI50 and LC50 values were extrapolated from a variable (four-parameter) dose-response curve fitted in GraphPad Prism.

With `CC(C)n1c(C2CCNCC2)nc2c([N+](=O)[O-])c(Br)c(Br)cc21` [SEL24-B489, 5,6-dibromo-4-nitro-2-(piperidin-4-yl)-1-(propan-2-yl)-1H-1,3-benzodiazole], the “S6 (S235/236) phosphorylation” value in the experiment on MOLM-16 (FLT3-WT) cells is on record as “profound inhibition”. In addition, in [1], the MCL1 abundance result is “markedly decreased”. In addition, in experiment [1], the STAT5 signaling entry was “completely blocked”. In addition, in [1], the “apoptosis indicated by PARP cleavage” value was “marked induction of apoptosis”. For the same molecule, the “tumor growth inhibition (TGI)” value in [2] (MV-4-11, 50 mg/kg daily) is given as 67%; in experiment [2] (MV-4-11, 75 mg/kg daily) it was 74%; in [2] (MV-4-11, 100 mg/kg daily), 82%. Further, the dissociation constant (Kd) is 11 nM on FLT3 (D835V); 12 nM on FLT3 (ITD); 150 nM on FLT3 (N841I); 3.2 µM at FLT3 (R834Q); 16 nM on FLT3 (D835Y); 37 nM at FLT3 (D835H). Besides, the equilibrium dissociation constant (Kd) at FLT3 (ITD, F691L) was determined as 10 nM; on FLT3 (K663Q) it was 530 nM; at FLT3 (ITD, D835V), 2.8 nM; at PIM2, 2 nM. Moreover, the results for the GI50 with SKM-1 and in the experiment on OCI-AML-3 were 732 nM and 1590 nM, respectively. The results for the CC50 with SKM-1 (read-out: LC50) and in the experiment on OCI-AML-3 (read-out: LC50) were 7.77 µM and 9.21 µM, respectively. In addition, the IC50 in [3] was 31 nM.
